We go through seven sequences from PMC5458078, “Global mapping of CARM1 substrates defines enzyme specificity and substrate recognition” (Nature Communications, 2017).

In the assay the test system is CARM1. The experiment in a line: 96-spot peptide array in vitro methylation, autoradiography. It is filed as biochemical, human. The conditions noted are these: 96-spot array, 3H-SAM, 30 °C. The text has this: Having corroborated the ability of CARM1 to methylate most of the detected substrates, we designed an additional 96-spot peptide array (Fig. 2e and Supplementary Data 3) with two purposes in mind: (1) to examine the significance of surrounding amino acids on CARM1-directed arginine dimethylation, particularly those mutated in human cancers; and (2) to measure PRMT specificity towards respective substrates. The selected sequences encompassed a mixture herein identified and predicted CARM1 substrates (in light blue) and representative cancer-relevant substrates, accompanied by the sequences harbouring mutations detected in human patients[38] (in blue). We also arbitrarily mutated the recognition sequence surrounding R1064 on BAF155 (ref. [20])—the known CARM1 methylation site—to assess the significance of surrounding amino-acid residues to CARM1 activity (four sequence in dark blue). The array also featured 17 known substrates of PRMT1 (in grey), 10 substrates of PRMT5 (in purple) and 4 substrates of PRMT6 (in pink) as positive controls for these enzymes.
The FL and N-terminal domain-deleted version of human CARM1 cDNAs, and other PRMT FL cDNAs were cloned into pFN21K Halo Tag CMV Flexi mammalian expression vector (Promega, Madison, WI) using the unique Sgfl and Pmel site[55]. To express the protein, DNA constructs were transiently transfected into HEK293T CARM1 KO cells in 15 cm dishes using transIT-LT1 reagent (Mirus Bio, Madison, WI) according to the manufacturer's protocol. Proteins were allowed to express for 48 h. Cell pellets were then collected and lysed in lysis buffer (50 mM HEPES, pH 7.5, 150 mM NaCl, 0.005% NP-40, 0.5 mM EDTA, supplemented with 1 × protease inhibitor cocktail before use). The cells were sonicated on ice using a Branson Sonifier 450 with a microtip at 35% amplitude (10 s on, 30 s off, 6 cycles). The crude lysate was cleared by centrifugation (15,000 r.p.m., 4 °C, 20 min). The cleared lysate was then mixed with pre-washed Halo Link resin (60 μl resin for a 15 cm dish) and incubated with rotation at room temperature for 2 h. The resin was then washed twice with lysis buffer, once with lysis buffer supplemented with 1 M urea and twice with lysis buffer. The recombinant proteins were then eluted with cleavage buffer (lysis buffer supplemented with 1 mM DTT and 20 μg ml^−1 TEV protease) with rotation at room temperature for 2 h. The resin was centrifuged at 3,000 r.p.m. for 5 min, and the supernatant containing the cleaved protein was collected and protein concentration was determined using the Bradford assay (Thermo Scientific, Rockford, IL). Protein purity was assessed by running SDS–PAGE and Coomassie Blue staining.
Purified recombinant enzyme and substrates were incubated in methylation buffer (50 mM Tris-HCl, pH 8.0, 100 mM NaCl and 0.5 mM EDTA) for 1–4 h at 30 °C in the presence of 1 μl radioactive S-adenosyl-L-[methyl-^3H] methionine. The reaction was stopped by adding 5 × SDS sample buffer and boiling at 99 °C for 5 min. Proteins were resolved by SDS–PAGE. The gel was stained with Coomassie Brilliant Blue (Coomassie Brilliant Blue R-250 0.05% w/v: methanol 50%: acetic acid 10%: H2O 40%) followed by de-staining with dye-free buffer. Fixed gel was then soaked with amplify (GE Healthcare, Waukesha, WI) with gentle shaking at room temperature for 30 min before drying on a Whatman paper at 80 °C and exposing to an X-ray film in dark at −80 °C. Protein methylation was detected by autoradiography.
For methylation assays using the peptide array, 16 or 20 μg purified recombinant CARM1 or same molar concentration of the other PRMTs (for 96-spot and 192-spot arrays, respectively) was mixed well with 40 μl radioactive S-adenosyl-L-[methyl-^3H] methionine, 80 μl 5 × methylation buffer and ddH2O to achieve a final volume of 200 or 400 μl reaction (for 96-spot and 192-spot arrays, respectively). The Celluspot peptide arrays were customized and produced by Intavis Bioanalytical Instruments, Germany. […]

For the sequence DPYRPVRLQMQKLPT [MED12 (R1862) P1864Q], the “Methylation by CARM1 of mutated peptide vs wild-type sequence” value (“Methylation … vs wild-type sequence” below) is reported as “significantly reduced methylation by CARM1”.

On to PGNILAPRVPLTAPN [BAF155 (R1064) G1062A], for which the “Methylation … vs wild-type sequence” value is reported as “nearly abolished methylation by CARM1”.

Regarding PGNILGARVPLTAPN [BAF155 (R1064) P1063A], the “Methylation … vs wild-type sequence” value is recorded as “nearly abolished methylation by CARM1”.

Turning to PGNILGPRVALTAPN [BAF155 (R1064) P1066A], the “Methylation … vs wild-type sequence” value is reported as “nearly abolished methylation by CARM1”.

VQSLCDTRFHFQQRA [TET2 (R680) G678D]: the “Methylation … vs wild-type sequence” value is reported as “significantly reduced methylation by CARM1”.

With YGSQTPQRCPMTMQG [ARID1A (R429) Y430C], the “Methylation … vs wild-type sequence” value was “significantly reduced methylation by CARM1”.

As for YGSQTPQRYQMTMQG [ARID1A (R429) P431Q], the “Methylation … vs wild-type sequence” value is recorded as “significantly reduced methylation by CARM1”.
